Patent US9630977B2, “Cephalosporin derivatives and pharmaceutical compositions thereof” (Legochem Biosciences, Inc., priority 2011, dated 2017)
Converted amounts (≈) assume the structure as drawn. Where two headings read alike, the source gives them in different places.

Experiments:
Format in all cases: cell-based
[1] = test system: K. pneumoniae β10; assay: In vitro antibacterial activity test (broth microdilution); conditions: K. pneumoniae β10
How it was run: (§1)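 Stocks at 10,240 ug/mL in DMSO, serially diluted in DMSO then water to final 0.0626–128 ug/mL (2.5% V/V DMSO). CLSI broth microdilution; MIC90, ug/mL.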

[2] = test system: A. baumannii 52; assay: as above; conditions: A. baumannii 52
How it was run: as §1

[3] = test system: K. pneumoniae β9; assay: as above; conditions: K. pneumoniae β9
How it was run: as §1

[4] = test system: A. calcoaceticus ATCC15473; assay: as above; conditions: A. calcoaceticus ATCC15473
How it was run: as §1

[5] = test system: E. cloacae β19; assay: as above
How it was run: as §1

[6] = test system: P. aeruginosa 1912E; assay: as above
How it was run: as §1

[7] = test system: K. pneumoniae β13; assay: as above; conditions: K. pneumoniae β13
How it was run: as §1

[8] = test system: P. aeruginosa 6065Y; assay: as above
How it was run: as §1

[9] = test system: E. coli AG100; assay: as above
How it was run: as §1

[10] = test system: A. baumannii 46; assay: as above; conditions: A. baumannii 46
How it was run: as §1

[11] = test system: P. aeruginosa 37; assay: as above
How it was run: as §1

[12] = test system: P. aeruginosa 40; assay: as above
How it was run: as §1

[13] = test system: M. catarrhalis 2524; assay: as above; conditions: M. catarrhalis 2524
How it was run: as §1

[14] = test system: P. aeruginosa 43; assay: as above; conditions: P. aeruginosa 43
How it was run: as §1

[15] = test system: K. pneumoniae β11; assay: as above; conditions: K. pneumoniae β11
How it was run: as §1

[16] = test system: E. coli β4; assay: as above
How it was run: as §1

[17] = test system: A. baumannii 49; assay: as above; conditions: A. baumannii 49
How it was run: as §1

[18] = test system: K. pneumoniae 2011E; assay: as above; conditions: K. pneumoniae 2011E
How it was run: as §1

[19] = test system: K. pneumoniae β14; assay: as above
How it was run: as §1

[20] = test system: 19 clinical isolates; assay: In vitro antibacterial activity test, panel of 19 clinical isolates as a whole; conditions: effect of a siderophore group, Table 1
Procedure: To evaluate antibacterial activity of each of the compounds of Examples 1 to 68, in vitro antibacterial activity test was performed.
(§2) The in vitro antibacterial activity was evaluated by measuring MIC90 (ug/mL) of each of the compounds of Examples 1 to 68, which is defined as the lowest concentration of an antibiotic that will inhibit the visible growth of 90% of microorganisms after incubation as compared with a control group to which the antibiotic is not treated. MIC90 values were measured by the broth microdilution method developed by the Clinical and Laboratory Standards Institute (CLSI) (see CLSI M7-A5, Methods for Dilution Antimicrobial Susceptibility Test for Bacteria that Grow Aerobically-Fifth Edition (2000): CLSI, Villanova, Pa.).
In vitro antibacterial activity was measured with respect to the following 19 clinical isolates: M. catarrhalis; P. aeruginosa (5 strains); K. pneumoniae (6 strains); A. baumannii (3 strains); E. coli (2 strains); A. calcoaceticus; and E. cloacae.
(§3) Test compounds each (the cephalosporin derivative compounds prepared in Examples 1 to 68) were dissolved in DMSO at the concentration of 10,240 ug/mL, were diluted by two fold with DMSO, and then were diluted by twenty fold with sterilized distilled water. The final concentration in the antibacterial activity test was in the range of […] to 128 ug/mL, and the final concentration of DMSO used as an adjuvant was 2.5% (V/V).

[21] = test system: A. baumannii (6 clinical isolates); assay: Antibacterial activity on representative drug-resistance bacteria: number of clinical isolates per MIC value; conditions: A. baumanni (N = 6)
Procedure: as §2, §3

[22] = test system: K. pneumoniae (38 clinical isolates); assay: as above; conditions: K. pneumomiae (N = 38)
Procedure: as §2, §3

[23] = test system: P. aeruginosa (16 clinical isolates); assay: as above; conditions: P. aeruginosa (N = 16)
Procedure: as §2, §3

[24] = Klebsiella pneumoniae, read-out: MIC90
[25] = Acinetobacter baumannii, read-out: MIC90
[26] = Pseudomonas aeruginosa, read-out: MIC90

**Q.** Which MIC90 [1, 24] does the source give for `CC(C)(O/N=C(\C(=O)N[C@@H]1C(=O)N2C(C(=O)[O-])=C(/C=C/C[n+]3cnc(N)c(NCCNC(=O)c4cc(=O)c(O)cn4O)c3)CSC12)c1nc(N)sc1Cl)C(=O)O` (stereo partly shown) [Compound 26] here?
**A.** < 0.0625 µg/mL

**Q.** What about the MIC90 [2, 25] of the same compound?
**A.** 2 µg/mL (≈ 2.4 µM)

**Q.** And the MIC90 [3, 24]?
**A.** 0.125 µg/mL (≈ 0.15 µM)

**Q.** And the MIC90 ([4]; Acinetobacter calcoaceticus, read-out: MIC90)?
**A.** 0.5 µg/mL (≈ 0.599 µM)

**Q.** And the MIC90 ([5]; Enterobacter cloacae, read-out: MIC90)?
**A.** 0.125 µg/mL (≈ 0.15 µM)

**Q.** What about the MIC90 ([6]; Pseudomonas aeruginosa, 1912E, read-out: MIC90) of the same compound?
**A.** 0.25 µg/mL (≈ 0.3 µM)

**Q.** What about the MIC90 [7, 24] of the same compound?
**A.** < 0.0625 µg/mL

**Q.** What about the MIC90 [8, 26] of the same compound?
**A.** 0.5 µg/mL (≈ 0.599 µM)

**Q.** What about the MIC90 ([9]; Escherichia coli, AG100, E. coli AG100, read-out: MIC90) of the same compound?
**A.** < 0.0625 µg/mL

**Q.** What about the MIC90 [10, 25] of the same compound?
**A.** 2 µg/mL (≈ 2.4 µM)

**Q.** What about the MIC90 ([11]; Pseudomonas aeruginosa, 37, P. aeruginosa 37, read-out: MIC90) of the same compound?
**A.** < 0.0625 µg/mL

**Q.** What about the MIC90 ([12]; Pseudomonas aeruginosa, 40, P. aeruginosa 40, read-out: MIC90) of the same compound?
**A.** < 0.0625 µg/mL

**Q.** And the MIC90 ([13]; Moraxella catarrhalis, read-out: MIC90)?
**A.** < 0.0625 µg/mL

**Q.** What about the MIC90 [14, 26] of the same compound?
**A.** 0.25 µg/mL (≈ 0.3 µM)

**Q.** And the MIC90 [15, 24]?
**A.** 0.5 µg/mL (≈ 0.599 µM)

**Q.** What about the MIC90 ([16]; Escherichia coli, read-out: MIC90) of the same compound?
**A.** < 0.0625 µg/mL

**Q.** What about the MIC90 [17, 25] of the same compound?
**A.** 16 µg/mL (≈ 19.2 µM)

**Q.** And the MIC90 ([18]; Klebsiella pneumoniae, 2011E, read-out: MIC90)?
**A.** 0.5 µg/mL (≈ 0.599 µM)

**Q.** What about the MIC90 [19, 24] of the same compound?
**A.** 4 µg/mL (≈ 4.79 µM)

**Q.** And the “antibacterial activity (in words)” value [20]?
**A.** significantly improved

**Q.** What about the “number of clinical isolates that showed the respective MIC value” (“number” for short) ([21]; MIC 0.5 ug/mL) of the same compound?
**A.** 1

**Q.** And the “number” value ([21]; MIC 8 ug/mL)?
**A.** 2

**Q.** And the “number” value ([21]; MIC >16 ug/mL)?
**A.** 3

**Q.** And the “number” value ([22]; MIC 0.25 ug/mL)?
**A.** 1

**Q.** What about the “number” value ([22]; MIC 0.5 ug/mL) of the same compound?
**A.** 2

**Q.** What about the “number” value ([22]; MIC 1 ug/mL) of the same compound?
**A.** 3

**Q.** What about the “number” value ([22]; MIC 2 ug/mL) of the same compound?
**A.** 1

**Q.** And the “number” value ([22]; MIC 8 ug/mL)?
**A.** 4

**Q.** And the “number” value ([22]; MIC 16 ug/mL)?
**A.** 4

**Q.** And the “number” value ([22]; MIC <0.0625 ug/mL)?
**A.** 1

**Q.** And the “number” value ([22]; MIC >16 ug/mL)?
**A.** 22

**Q.** What about the “number” value ([23]; MIC 0.0625 ug/mL) of the same compound?
**A.** 1

**Q.** What about the “number” value ([23]; MIC 0.25 ug/mL) of the same compound?
**A.** 2

**Q.** And the “number” value ([23]; MIC 0.5 ug/mL)?
**A.** 3

**Q.** And the “number” value ([23]; MIC 1 ug/mL)?
**A.** 1

**Q.** What about the “number” value ([23]; MIC 2 ug/mL) of the same compound?
**A.** 2

**Q.** And the “number” value ([23]; MIC 4 ug/mL)?
**A.** 3

**Q.** And the “number” value ([23]; MIC 8 ug/mL)?
**A.** 1

**Q.** And the “number” value ([23]; MIC >16 ug/mL)?
**A.** 3

**Q.** Which MIC90 [1] does the source give for `CC(C)(O/N=C(\C(=O)N[C@@H]1C(=O)N2C(C(=O)[O-])=C(/C=C/C[n+]3cnc(N)c(NCCNC(=O)c4cc(=O)c(O)cn4O)c3)CSC12)c1csc(N)n1)C(=O)O` (stereo partly shown) [Compound 11] here?
**A.** <0.0625 µg/mL

**Q.** What about the MIC90 [2] of the same compound?
**A.** >128 µg/mL

**Q.** What about the MIC90 [3] of the same compound?
**A.** <0.0625 µg/mL

**Q.** And the MIC90 [4]?
**A.** 1 µg/mL (≈ 1.25 µM)

**Q.** What about the MIC90 [5] of the same compound?
**A.** 64 µg/mL (≈ 80 µM)

**Q.** What about the MIC90 [6] of the same compound?
**A.** 1 µg/mL (≈ 1.25 µM)

**Q.** And the MIC90 [7]?
**A.** <0.0625 µg/mL

**Q.** And the MIC90 [8]?
**A.** 4 µg/mL (≈ 5 µM)

**Q.** What about the MIC90 ([9]; E. coli AG100) of the same compound?
**A.** 0.125 µg/mL (≈ 0.156 µM)

**Q.** And the MIC90 [10]?
**A.** 4 µg/mL (≈ 5 µM)

**Q.** What about the MIC90 ([11]; P. aeruginosa 37) of the same compound?
**A.** 1 µg/mL (≈ 1.25 µM)

**Q.** And the MIC90 ([12]; P. aeruginosa 40)?
**A.** 0.5 µg/mL (≈ 0.625 µM)

**Q.** And the MIC90 [13]?
**A.** 0.25 µg/mL (≈ 0.313 µM)

**Q.** What about the MIC90 [14] of the same compound?
**A.** 1 µg/mL (≈ 1.25 µM)

**Q.** And the MIC90 [15]?
**A.** >128 µg/mL

**Q.** What about the MIC90 [16] of the same compound?
**A.** 0.125 µg/mL (≈ 0.156 µM)

**Q.** What about the MIC90 [17] of the same compound?
**A.** >128 µg/mL

**Q.** What about the MIC90 [18] of the same compound?
**A.** 0.5 µg/mL (≈ 0.625 µM)

**Q.** And the MIC90 [19]?
**A.** 8 µg/mL (≈ 10 µM)

**Q.** And the “antibacterial activity (in words)” value [20]?
**A.** significantly improved

**Q.** And the “number” value ([21]; MIC 2 ug/mL)?
**A.** 1

**Q.** What about the “number” value ([21]; MIC >16 ug/mL) of the same compound?
**A.** 5

**Q.** And the “number” value ([22]; MIC 0.5 ug/mL)?
**A.** 1

**Q.** What about the “number” value ([22]; MIC 2 ug/mL) of the same compound?
**A.** 1

**Q.** And the “number” value ([22]; MIC 8 ug/mL)?
**A.** 1

**Q.** And the “number” value ([22]; MIC >16 ug/mL)?
**A.** 35

**Q.** What about the “number” value ([23]; MIC 0.125 ug/mL) of the same compound?
**A.** 1

**Q.** What about the “number” value ([23]; MIC 0.5 ug/mL) of the same compound?
**A.** 3

**Q.** What about the “number” value ([23]; MIC 1 ug/mL) of the same compound?
**A.** 2

**Q.** What about the “number” value ([23]; MIC 2 ug/mL) of the same compound?
**A.** 2

**Q.** And the “number” value ([23]; MIC 4 ug/mL)?
**A.** 3

**Q.** What about the “number” value ([23]; MIC 8 ug/mL) of the same compound?
**A.** 2

**Q.** And the “number” value ([23]; MIC 16 ug/mL)?
**A.** 1

**Q.** And the “number” value ([23]; MIC >16 ug/mL)?
**A.** 2
